Drawing on patent US8063055B2, “Substituted pyridone compounds and methods of use” (Amgen Inc., priority 2007, dated 2011), this text covers IC50 for six compounds.

Experiment [1] concerns the target T1, c-kit kinase enzyme (Homo sapiens, UniProt P10721).
T1 construct: (catalytic domain, N-terminal GST tagged, unphosphorylated)
As to the kind of experiment: C-kit Homogeneous Time Resolved Fluorescent (HTRF) kinase assay. It counts as biochemical. To be noted: HTRF Fret enzyme assay data, c-kit catalytic domain, biotinylated Her-2 peptide substrate, ATP. (Time-resolved FRET reads energy transfer from a long-lived donor to a nearby acceptor.)

Experiment [2] deals with SCF-stimulated UT-7 cells. To be noted: Homo sapiens.
Excerpt: SCF and GM-CSF Stimulated UT7 Proliferation/Survival Assay:
The purpose of this assay is to test the general anti-proliferative/cytotoxic effect of small molecule compounds on SCF or GM-CSF-stimulated UT-7 cells. Preventing SCF stimulated proliferation/survival is consistent with an on-mechanism effect whereas inhibition of GM-CSF driven proliferation/survival is indicative of off-target effects. UT-7 is a factor dependent human megakaryoblastic leukemia cell line that can be grown in either IL-3, GM-CSF, EPO or SCF (these cells have been confirmed to carry wild type c-kit receptor). Cells are maintained in growth media (IMDM, 10% HI-FBS, 1×PGS, 1 ng/mL GM-CSF). […] Small molecule compounds are first diluted in 100% DMSO, then diluted 1:4 in RT assay media. […] The treated cells are incubated in a 37° C. humidified incubator with 5% CO2 for 3 days. The amount of ATP is then measured as a surrogate marker for cell viability. […] The amount of SCF or GM-CSF stimulated viable cells in the presence of compound compared with in the presence of vehicle alone (HI control) is calculated using the formula: % control (POC)=(cpd−average LO)/(average HI−average LO)*100. Data (consisting of POC and inhibitor concentration in μM) is fitted to a 4-parameter equation (y=A+((B−A)/(1+((x/C)^D))), where A is the minimum y (POC) value, B is the maximum y (POC), C is the x (cpd concentration) at the point of inflection and D is the slope factor) using a Levenburg-Marquardt non-linear regression algorithm.
Where [3] appears, read: UT7, 72 h, read-out: UT7 Proliferation cell assay data.
[4] abbreviates: UT7, read-out: average IC50 value in the SCF stimulated UT7 proliferation and survival assay.

Like-named read-outs stand apart in the source and are kept apart here.

T1 sequence (P10721 589-937 limits assumed): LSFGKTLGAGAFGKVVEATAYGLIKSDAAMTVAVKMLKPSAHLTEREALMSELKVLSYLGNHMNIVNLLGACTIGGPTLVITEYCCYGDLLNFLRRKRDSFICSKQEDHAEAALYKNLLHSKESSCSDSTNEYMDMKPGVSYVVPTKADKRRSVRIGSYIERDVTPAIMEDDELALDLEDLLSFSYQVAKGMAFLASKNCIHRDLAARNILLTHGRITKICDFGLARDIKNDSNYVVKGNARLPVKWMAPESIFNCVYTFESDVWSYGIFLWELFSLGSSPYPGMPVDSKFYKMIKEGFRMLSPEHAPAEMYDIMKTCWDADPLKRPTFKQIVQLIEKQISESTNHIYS

As to `Cc1ccn(CCC2CCCC2)c(=O)c1-c1ccc2nc(N)ncc2c1` [Example 52, 3-(2-aminoquinazolin-6-yl)-1-(2-cyclopentylethyl)-4-methylpyridin-2(1H)-one], the IC50 in experiment [1] was 0.818 nM; in experiment [2] (setting [3]), 24 nM; in experiment [2] (setting [4]), not above 1000 nM.

On to `CC(C)=CCn1ccc(C)c(-c2ccc3nc(N)ncc3c2)c1=O` [Example 54, 3-(2-aminoquinazolin-6-yl)-4-methyl-1-(3-methylbut-2-enyl)pyridin-2(1H)-one], for which the figures for the IC50 in experiment [1], in experiment [2] (setting [3]) and in experiment [2] (setting [4]) were 23.9 nM, 12 nM and not above 1000 nM, respectively.

As to `Cc1ccn(CCC(C)(C)C)c(=O)c1-c1ccc2nc(N)ncc2c1` [Example 57, 3-(2-aminoquinazolin-6-yl)-1-(3,3-dimethylbutyl)-4-methylpyridin-2(1H)-one], the figures for the IC50 in experiment [1] and in experiment [2] (setting [3]) were 16.3 nM and 43 nM, respectively.

Turning to `CCC(C)CCn1ccc(C)c(-c2ccc3nc(N)ncc3c2)c1=O` (stereo not drawn) [Example 58, 3-(2-aminoquinazolin-6-yl)-4-methyl-1-(3-methylpentyl)pyridin-2(1H)-one], the values for the IC50 in experiment [1] and in experiment [2] (setting [3]) were 2.51 nM and 9 nM, respectively.

As to `Cc1ccn(CCC2CC2)c(=O)c1-c1ccc2nc(N)ncc2c1` [Example 59, 3-(2-aminoquinazolin-6-yl)-1-(2-cyclopropylethyl)-4-methylpyridin-2(1H)-one], the IC50 amounted to 78.9 nM in experiment [1] and 28 nM in experiment [2] (setting [3]).

Turning to `Cc1ccn(CCCC(C)C)c(=O)c1-c1ccc2nc(N)ncc2c1` [Example 61, 3-(2-aminoquinazolin-6-yl)-4-methyl-1-(4-methylpentyl)pyridin-2(1H)-one], the IC50 in experiment [1] is 1.12 nM; in experiment [2] (setting [3]) it was 4 nM; in experiment [2] (setting [4]), not above 1000 nM.
